# Experimental data: patent publication US20240041804A1, “NHE-1 INHIBITORS FOR THE TREATMENT OF CORONAVIRUS INFECTIONS” (priority 2020, published 2024)
# Entries after “also recorded” stand apart in the source; their conditions may differ. Where two headings read alike, the source gives them in different places.
# How the values were obtained:
# [1] = system: LPS induced lung injury; conditions: amiloride pretreatment 10 mg/kg intravenous injection, rats; cited from earlier work
# [2] = target: SARS-CoV envelope protein ion channels (SARS-CoV E protein) (Severe acute respiratory syndrome coronavirus, UniProt P59637); conditions: cited from earlier work
# [3] = system: store-operated calcium entry (SOCE); test: Store-operated calcium entry (45Ca2+ accumulation) in myotubes; type: cell-based
# [4] = target: T1, NHE-1 (Mus musculus, UniProt Q61165); test: 22Na+ influx in myotube cultures; type: cell-based
# T1 construct: time-course of ^22Na^+ influx studied in wild type and dystrophic myotube cultures; endogenous in cells; host or cells: primary wild type and dystrophic myotubes
# [5] = system: human platelet swelling; test: In vitro platelet swelling assay with human platelet rich plasma; type: cell-based; conditions: OD 680 nm, pH 6.6, read-out: IC50 of inhibition of platelet swelling (+SEM)
# [6] = system: platelet aggregation
# [7] = system: platelet swelling; test: Ex vivo platelet swelling, Eniporide phase I studies in healthy subjects; set-up: species or system human
# [8] = system: Su/Hx rat model of PAH; test: Su/Hx rat model of PAH: echocardiography; type: in vivo; conditions: 100 mg/kg/day in drinking water week 5-8; Su/Hx+Rime vs Su/Hx, week 8
# [9] = system: rat model of heart failure; test: Rat model of heart failure after myocardial infarction (permanent left coronary artery ligation); type: in vivo
# [10] = system: Su/Hx rat model of PAH; test: Su/Hx rat model of PAH: right ventricle hypertrophy and fibrosis; type: in vivo; conditions: 100 mg/kg/day in drinking water week 5-8; Su/Hx+Rime vs Su/Hx, week 8
# [11] = system: pigs of myocardial infarction; test: Anesthetized open-chest pig model of myocardial infarction; type: in vivo; conditions: 1 mg/kg iv before occlusion, 7 mg/kg iv before reperfusion
# [12] = system: platelet swelling; test: Ex vivo platelet swelling, Rimeporide multiple ascending dose study; type: in vivo, human; conditions: day 3, multiple ascending dose study
# [13] = system: Su/Hx rat model of PAH; test: Su/Hx rat model of PAH: pulmonary vascular fibrosis (Masson trichome); type: in vivo; conditions: 100 mg/kg/day in drinking water week 5-8; Su/Hx+Rime vs Su/Hx, week 8
# [14] = system: platelet swelling; test: Ex vivo platelet swelling, Rimeporide single oral ascending dose study; type: in vivo, human; conditions: single oral dose 300 to 600 mg, healthy male volunteers
# [15] = single oral dose
# [16] = system: plasma circulating biomarkers (CCL15, KLK6, FAS, TNFα, MCP-1/CCL2); set-up: Term, TNFα: unit not given here; conditions: DMD patients, 4-week oral treatment, cited from earlier work
# [17] = system: male mdx mice; test: Ex vivo H&E histopathology of diaphragm inflammation in mdx mice; set-up: species or system mouse; conditions: 400 ppm Rimeporide
# [18] = system: Su/Hx rat model of PAH; test: Su/Hx rat model of PAH: lung inflammation (CD68); type: in vivo; conditions: 100 mg/kg/day in drinking water week 5-8; Su/Hx+Rime vs Su/Hx, week 8
# [19] = system: male mdx mice; test: Cathepsin enzyme activity by optical imaging (skeletal muscle inflammation) in mdx mice; type: in vivo, mouse; conditions: 400 ppm Rimeporide in food, 5 weeks
# [20] = system: rat model of myocardial infarction; test: Rat model of myocardial infarction (30 min occlusion, 90 min reperfusion); type: in vivo; conditions: prophylactic, 0.01 to 1 mg/kg intravenously and 0.1 to 1 mg/kg per os
# [21] = system: dystrophic, mdx mice; test: Fibrosis in heart and diaphragm of mdx mice; type: in vivo, mouse; conditions: given in a preventive manner
# [22] = target: T2, sodium-hydrogen exchange activity (NHE-1) (Rattus norvegicus, UniProt P26431); test: NHE activity (BCECF) in rat pulmonary arterial smooth muscle cells; type: cell-based; conditions: PASMCs of Su/Hx pulmonary hypertension rats, 10^-6 to 10^-4 M
# T2 construct: performed in rat PASMCs in vitro of both Normoxic and Su/Hx pulmonary hypertension (PH) rats; endogenous in cells; host or cells: primary rat PASMCs from normoxic and Su/Hx pulmonary hypertension rats
# [23] = system: Su/Hx rat model of PAH; test: Su/Hx rat model of PAH: invasive hemodynamic monitoring; type: in vivo; conditions: 100 mg/kg/day in drinking water week 5-8; Su/Hx+Rime vs Su/Hx, week 8
# T1 sequence (Q61165 whole entry): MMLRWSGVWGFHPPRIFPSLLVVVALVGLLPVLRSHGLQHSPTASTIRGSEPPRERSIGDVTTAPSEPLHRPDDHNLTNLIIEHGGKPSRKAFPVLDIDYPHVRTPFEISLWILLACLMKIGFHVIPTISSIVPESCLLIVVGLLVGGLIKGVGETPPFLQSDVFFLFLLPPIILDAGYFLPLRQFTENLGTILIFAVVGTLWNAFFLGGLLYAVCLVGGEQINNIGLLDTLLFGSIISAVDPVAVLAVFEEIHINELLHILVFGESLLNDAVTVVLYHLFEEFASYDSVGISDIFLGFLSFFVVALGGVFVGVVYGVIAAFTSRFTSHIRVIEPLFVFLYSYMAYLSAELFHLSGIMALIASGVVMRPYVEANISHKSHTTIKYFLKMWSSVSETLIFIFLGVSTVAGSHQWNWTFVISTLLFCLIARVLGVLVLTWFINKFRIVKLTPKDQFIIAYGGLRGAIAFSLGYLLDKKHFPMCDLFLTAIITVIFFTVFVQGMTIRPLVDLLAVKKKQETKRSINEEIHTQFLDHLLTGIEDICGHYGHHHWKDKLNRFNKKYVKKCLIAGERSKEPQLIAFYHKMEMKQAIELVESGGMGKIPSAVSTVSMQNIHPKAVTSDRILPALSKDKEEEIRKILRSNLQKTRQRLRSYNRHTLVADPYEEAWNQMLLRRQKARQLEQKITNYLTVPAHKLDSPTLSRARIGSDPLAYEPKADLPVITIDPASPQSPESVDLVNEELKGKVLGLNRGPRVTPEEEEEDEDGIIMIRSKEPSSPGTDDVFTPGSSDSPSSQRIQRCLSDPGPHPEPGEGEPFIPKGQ
# Chain of SARS-CoV envelope protein ion channels (SARS-CoV E protein) (P59637 whole entry, looked up): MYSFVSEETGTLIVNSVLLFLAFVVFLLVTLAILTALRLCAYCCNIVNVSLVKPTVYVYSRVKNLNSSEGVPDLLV
# T2 sequence (P26431 whole entry): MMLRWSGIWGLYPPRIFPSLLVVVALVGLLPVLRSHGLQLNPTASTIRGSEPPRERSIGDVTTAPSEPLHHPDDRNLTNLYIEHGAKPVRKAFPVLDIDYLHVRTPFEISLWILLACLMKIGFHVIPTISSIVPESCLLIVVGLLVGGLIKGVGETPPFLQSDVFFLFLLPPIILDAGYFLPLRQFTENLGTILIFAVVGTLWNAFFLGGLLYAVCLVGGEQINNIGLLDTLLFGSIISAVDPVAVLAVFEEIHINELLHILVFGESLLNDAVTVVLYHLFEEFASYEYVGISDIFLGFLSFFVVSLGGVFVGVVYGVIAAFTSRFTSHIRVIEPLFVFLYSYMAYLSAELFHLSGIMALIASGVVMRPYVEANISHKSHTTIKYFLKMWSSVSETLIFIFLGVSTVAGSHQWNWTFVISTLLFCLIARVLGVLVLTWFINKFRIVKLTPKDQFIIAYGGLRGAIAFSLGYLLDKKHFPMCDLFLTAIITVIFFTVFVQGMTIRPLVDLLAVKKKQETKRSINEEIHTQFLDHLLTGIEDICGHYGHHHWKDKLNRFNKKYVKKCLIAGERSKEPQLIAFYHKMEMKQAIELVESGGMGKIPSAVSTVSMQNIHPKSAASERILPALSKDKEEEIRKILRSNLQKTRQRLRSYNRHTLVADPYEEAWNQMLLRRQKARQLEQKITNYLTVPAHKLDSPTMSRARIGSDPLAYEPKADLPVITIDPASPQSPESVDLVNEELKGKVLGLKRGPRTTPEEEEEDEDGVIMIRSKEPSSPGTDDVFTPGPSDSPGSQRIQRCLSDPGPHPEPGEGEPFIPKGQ
smiles,measurement,setting,value
"NC(N)=NC(=O)c1nc(Cl)c(N)nc1N [Amiloride, 3,5-Diamino-N-carbamimidoyl-6-chlorpyrazin-2-carbamid]",LPS induced lung injury,[1],significantly inhibited
same,effect on activity of E-proteins (ion channel),[2],quasi-ineffective
"Cc1nnsc1C(=O)Nc1ccc(-n2nc(C(F)(F)F)cc2C(F)(F)F)cc1 [BTP-2, reference compound]",effect on store-operated calcium entry (SOCE),[3],abolished
same,inhibition of Ca2+ flux (SOCE protocol),[3]; 10 μM,almost complete inhibition
"CC(C)c1ccc(C(=O)NC(=N)N)cc1S(C)(=O)=O [Cariporide, N-(Diaminomethylidene)-3-methanesulfonyl-4-(propan-2-yl) benzamide]",comparison of NHE inhibitors on 22Na+ fluxes (rank order),[4],"Zoniporide>Cariporide, EIPA>Rimeporide"
same,IC50,[5],166 nM
same,comparison of NHE inhibitors on SOCE (rank order),[3],"Zoniporide>Cariporide, EIPA>Rimeporide"
"CCN(c1nc(N)c(C(=O)N=C(N)N)nc1Cl)C(C)C [EIPA, 5-(N-ethyl-N-isopropyl)amiloride, reference compound]",comparison of NHE inhibitors on 22Na+ fluxes (rank order),[4]; myotubes,"Zoniporide>Cariporide, EIPA>Rimeporide"
same,comparison of NHE inhibitors on SOCE (rank order),[3]; myotubes,"Zoniporide>Cariporide, EIPA>Rimeporide"
"Cc1cc(-n2cccc2)c(S(C)(=O)=O)cc1C(=O)NC(=N)N [Eniporide, N-(diaminomethylidene)-2-methyl-5-methylsulfonyl-4-pyrrol-1-ylbenzamide]",effect on platelet aggregation,"[6]; human, in vivo",No clinically relevant effect
same,effects on PT or APTT,"human, in vivo",no clinically relevant effects
same,IC50,[5],30 nM
same,inhibition of platelet swelling immediately post dosing,"[7]; 50 mg and above, intravenous",total inhibition
same,inhibitory activity on platelet swelling,"[7]; 2 times 200 mg as an infusion, 6 hours post first dose",80%
same,inhibitory activity on platelet swelling remaining,"[7]; 1.5 hours post dose, doses 100-200 mg",More than 80%
same,inhibitory activity on platelet swelling remaining,"[7]; 3 hours post dose, doses 250-400 mg",More than 80%
same,dose from which platelet swelling was reduced,"[7]; healthy subjects, single intravenous dose",≥ 5 mg
"NC(N)=NC(=O)c1nc(Cl)c(N2CCCCCC2)nc1N [HMA, 5-N, N-(hexamethylene)amiloride]",effect on activity of E-proteins (ion channel),[2],significantly reduced activity of E-proteins
"Cc1cc(S(C)(=O)=O)c(S(C)(=O)=O)cc1C(=O)NC(=N)N [Rimeporide, N-(4,5-bismethanesulfonyl-2-methylbenzoyl)guanidine]",Mean Pulmonary Arterial Pressure (mPAP),[8],significantly lower mPAP
same,Pulmonary Artery Acceleration Time/Ejection Time (PA AT/ET),[8],significantly higher PA AT/ET ratio
same,RV cardiac output (CO),[8],significantly higher RV CO
same,RV free wall thickness,[8],significantly lower RV free wall thickness
same,RV internal diameter at diastole,[8],significantly lower RV internal diameter
same,effect on platelet aggregation,"[6]; Rimeporide single oral dose, 10 μM ADP, 3, 24 and 48 hours post-dose",no evidence of inhibition of platelet aggregation
same,myocardial hypertrophy and left ventricular function,[9],significantly and dose dependently reduce myocardial hypertrophy and preserve left ventricular function
same,survival,[9],substantial improvement in survival
same,RV fibrosis (Sirius Red),[10],significantly lower fibrosis
same,Right Ventricle/Left Ventricle+Septum (RV/LV+S) weight ratio,[10],no statistically significant difference
same,infarct size,[11],decrease infarct size
same,subjects with some evidence of platelet swelling inhibition,[12],67%
same,pulmonary vascular fibrosis,[13],significantly lower fibrosis
same,inhibition at 100 µM,"[4]; 100 μM, after 10 to 20 min of influx, myotube cultures, read-out: inhibition of 22Na+ accumulation / Na+ influx",~40%
same,comparison of NHE inhibitors on 22Na+ fluxes (rank order),[4]; myotubes,weakest inhibitor
same,effect on 22Na+ accumulation,"[4]; pretreatment 1-100 μM, normal and dystrophic myotubes",dose-dependent inhibition
same,rate constant of platelet swelling reaction post-dose vs pre-dose,[14],post-dose decrease in rate constant was consistently observed
same,effects on PT and APTT,Rimeporide single oral dose study,No effects
same,"plasma concentration, Subject 15",[15]; 1 hour post-dose,159 ng/mL
same,"plasma concentration, Subject 15",[15]; 3 hours post-dose,3690 ng/mL
same,"Term, TNFα",[16]; Luminex,−0.1726
same,"Term, CCL15",[16]; OLink,−0.4489
same,"Term, FAS",[16]; OLink,−0.2823
same,"Term, KLK6",[16]; OLink,−0.2612
same,"Term, MCP-1/CCL2",[16]; OLink,−0.5675
same,IC50,[5],455 nM
same,reduction in inflammation in the diaphragm (H&E) relative to vehicle,[17],44%
same,percentage of CD68+ cells relative to total nuclei in lung tissue,[18],significantly lower
same,"reduction in Cathepsin B activity, forelimb",[19]; forelimb,−26%
same,"reduction in Cathepsin B activity, hindlimb",[19]; hindlimb,−22%
same,infarct size,[20],reduce dose dependent infarct size
same,fibrosis in the heart and the diaphragm,[21],antifibrotic effect
same,effect on NHE activity in PASMCs,[22],inhibits NHE activity in the PASMCs in a dose-dependent manner
same,RV End Diastolic Pressure (EDP),[23],significantly lower pressure
same,RV Tau,[23],significantly lower Tau
same,RV systolic pressure,[23],significantly lower pressure
same,effect on store-operated calcium entry (SOCE),[3],inhibition of SOCE; also recorded: dose-dependently prevented SOCE
same,concentration giving strong SOCE inhibition reaching basal levels,[3]; dystrophic myotubes,30 µM
same,lowest concentration with statistical differences in SOCE inhibition,[3]; dystrophic myotubes,3 µM
same,comparison of NHE inhibitors on SOCE (rank order),[3]; myotubes,weakest inhibitor
"N=C(N)NC(=O)c1cnn(-c2cccc3ncccc23)c1C1CC1 [Zoniporide, reference compound]",comparison of NHE inhibitors on 22Na+ fluxes (rank order),[4]; myotubes,"Zoniporide>Cariporide, EIPA>Rimeporide"
same,comparison of NHE inhibitors on SOCE (rank order),[3],"Zoniporide>Cariporide, EIPA>Rimeporide"
NC1=N[C@H](O)[C@H]2[C@H]3O[C@]4(O)O[C@@H]([C@@H](O)[C@@]2(N1)[C@@H]4O)[C@]3(O)CO [tetrodotoxin],further decrease of 22Na+ influx,[4],around 8%
